For orientation: Kp means tissue or fluid exposure divided by exposure in the circulation.

One data set deals with CDK4/Cyclin D1 (Homo sapiens (Human), UniProt P11802). As to the kind of experiment: CDK4/CyclinD1 enzymatic activity assay (TR-FRET). It is filed as biochemical. The note with it: ATP 2 mM, read-out: CDK4_D1 IC50. In outline:
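Insect-cell CDK4/Cyclin D1 (1 nM) with ULight-4E-BP1 (100 nM) and 2 mM ATP in HEPES pH 7.4 buffer, preincubated 20 min with compound (9-dose, 3-fold dilutions); 10 mM MgCl2 started the reaction, run 60 min at 37 °C. EDTA/Eu-anti-phospho-4E-BP1 TR-FRET detection; IC50 from 4-parameter Hill fit.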
(In general: In TR-FRET formats the signal depends on donor and acceptor labels being close together.)

Data set [1] can be described thus: Brain-to-plasma ratio (Kp) determination in Sprague-Dawley rats. The settings on record: male, rat, brain (homogenate) versus plasma, po, 10 mg/kg.
Procedure: The brain-to-plasma ratio (Kp) was determined in male Sprague-Dawley rats (7-9 weeks old) four hours after a single oral dose. Rats were acclimated and given free access to standard rodent chow and water throughout the entire study. Test articles were formulated as a solution at 0.3, 0.4, 0.5, or 1.0 mg/mL in a vehicle comprised of 10:15:75 (v:v:v) dimethylacetamide (DMA):Solutol HS15:water and delivered orally at a rate of 10 mL/kg to three rats to achieve final doses of 3, 4, 5, or 10 mg/kg, respectively. At 4 hours post-dose, blood samples were collected via jugular vein cannula into tubes containing K2EDTA as the anticoagulant and stored on ice. Blood samples were then centrifuged at 4° C. at 6000 rpm for 5 minutes, and the resulting plasma was placed into tubes and stored frozen at −80° C. until analysis. Whole brain samples were also collected at 4 hours post-dose. The weight of each brain was measured and recorded, and samples were immediately stored on dry ice. Brain samples were then transferred to storage at −80° C. until analysis.
Prior to analysis, brain samples were combined with water (4 mL/1 gram of brain) and homogenized. Prior to injection, plasma and brain homogenate samples and standards were prepared for analysis by precipitation with acetonitrile or 1:1 (v:v) methanol:acetonitrile. Samples were then thoroughly mixed, centrifuged at 4000 rpm for 15 minutes, and the resulting supernatant was transferred for analysis. Test article concentrations in plasma and brain homogenate were then determined by LC-MS/MS and quantified against calibration standards prepared to known concentrations in matched blank (analyte-free) biological matrix. The Kp was then determined by dividing the dilution-corrected brain concentration by the plasma concentration from each rat. A brain density of 1 gram/mL was assumed for all calculations.
In a further data set the target is CDK6/Cyclin D1 (Homo sapiens (Human), UniProt Q00534). As to the kind of experiment: CDK6/CyclinD1 enzymatic activity assay (TR-FRET). It is filed as biochemical. The settings on record: ATP 250 μM, read-out: CDK6_D1 IC50. The method, then: CDK6/CyclinD1 Enzymatic Activity Assay
Chain of CDK6/Cyclin D1 (Q00534 whole entry): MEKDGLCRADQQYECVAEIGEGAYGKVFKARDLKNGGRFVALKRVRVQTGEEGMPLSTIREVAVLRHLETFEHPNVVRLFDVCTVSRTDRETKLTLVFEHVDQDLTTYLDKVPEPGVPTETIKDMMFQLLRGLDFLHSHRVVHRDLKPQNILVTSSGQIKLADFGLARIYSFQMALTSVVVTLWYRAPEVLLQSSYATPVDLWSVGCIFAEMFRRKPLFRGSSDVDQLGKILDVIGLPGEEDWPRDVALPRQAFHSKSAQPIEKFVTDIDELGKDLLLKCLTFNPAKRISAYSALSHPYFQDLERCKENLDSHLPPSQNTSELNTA
Chain of CDK6/Cyclin D1 (P24385 whole entry partner): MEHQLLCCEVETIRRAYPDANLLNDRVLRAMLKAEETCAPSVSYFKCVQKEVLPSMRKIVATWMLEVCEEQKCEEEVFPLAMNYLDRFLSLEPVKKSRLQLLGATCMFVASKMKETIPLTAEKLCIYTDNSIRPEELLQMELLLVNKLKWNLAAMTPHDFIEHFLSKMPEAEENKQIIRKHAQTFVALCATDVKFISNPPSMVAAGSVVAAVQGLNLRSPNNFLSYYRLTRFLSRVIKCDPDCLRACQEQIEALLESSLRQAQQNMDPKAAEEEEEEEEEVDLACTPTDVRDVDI
The inhibitory activity of compounds was evaluated in vitro using TR-FRET assay with white 384-well low volume microplate (Greiner Bio-One). CDK6/Cyclin D1 catalyzed phosphorylation of peptide in the presence and absence of compounds was measured and used in IC50 determination. Recombinant protein complex CDK6/Cyclin D1, expressed from insect cell, was purchased from ProQinase. Testing compounds were dissolved in DMSO at 0.1 mM and tested in 9-dose IC50 mode. The reaction mixture was prepared by mixing CDK6/Cyclin D1 (1 nM final), ULight-4E-BP1 (100 nM final, Perkinelmer, TRF0128-D), and ATP (250 μM final) in assay buffer (20 mM of HEPES pH 7.4, 1 mM of EGTA, 0.05% BSA, 0.005% Tween 20, and 1 mM TCEP). The compound of interest in DMSO was added to each well in 3-fold serial dilution by dispenser (TECAN D300E). After 20 minutes preincubation at room temperature, 0.1 μL MgCl2 (10 mM final) was added to initiate the reaction. Following a 60 minutes incubation at 37° C., the reaction was stopped by addition of 2 μL of quenching buffer consisting of Lance detection buffer (Perkinelmer CR97-100C), 2 nM LANCE Ultra Europium-anti-P-4E-BP1 (Perkinelmer, TRF0216-D), 10 mM EDTA, and incubate at room temperature for additional 60 minutes in dark. The reaction signal was measured by Envision multimode plate reader (PerkinElmer, 2102-0010). IC50 values were determined by fitting the data to the standard 4 parameters with Hill Slope using GraphPad Prism software.

For data set [2], the system named is MCF7 adenocarcinoma cell line. As to the kind of experiment: Cell proliferation studies in MCF7 cells (ATP-Lite, 10 days). It is filed as cell-based. The settings on record: Homo sapiens, 240 h, read-out: PROLIFERATION_CTG_MCF7 IC50. In outline: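 Cells were seeded at 100 or 200 per well in DMEM with 10% FBS and dosed in quadruplicate over a 9-point 3-fold dilution. Incubation lasted 10 days at 37 °C, with media exchange and re-dosing on day 5. Viability was read by ATP-Lite luminescence and normalised to background and DMSO, giving IC50.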

Chain of CDK4/Cyclin D1 (P11802 whole entry): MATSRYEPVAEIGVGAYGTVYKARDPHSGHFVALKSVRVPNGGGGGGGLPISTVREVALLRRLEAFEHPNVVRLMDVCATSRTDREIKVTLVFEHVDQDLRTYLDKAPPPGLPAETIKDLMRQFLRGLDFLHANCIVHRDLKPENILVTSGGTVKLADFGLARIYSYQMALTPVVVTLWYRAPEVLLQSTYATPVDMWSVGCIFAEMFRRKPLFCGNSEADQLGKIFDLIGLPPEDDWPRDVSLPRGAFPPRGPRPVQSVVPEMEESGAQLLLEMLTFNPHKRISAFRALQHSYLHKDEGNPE
Chain of CDK4/Cyclin D1 (P24385 whole entry partner): as the sequence (P24385 whole entry partner) above

Regarding `CCN1CC2(C1)CN(c1ccc(Nc3ncc(F)c(-c4sc5c(C(C)C)cn(C)c(=O)c5c4C)n3)nc1)C2` [Example 57, 2-(2-((5-(6-Ethyl-2,6-diazaspiro[3.3]heptan-2-yl)pyridin-2-yl)amino)-5-fluoropyrimidin-4-yl)-7-isopropyl-3,5-dimethylthieno[3,2-c]pyridin-4(5H)-one], the IC50 on CDK4/Cyclin D1 was no more than 20 nM; at CDK6/Cyclin D1 it was no more than 20 nM; in data set [2], 20 to 200 nM. Also, the partition ratio (Kp) at 4 h in data set [1] fell in the range of 1 to 3.

Take `Cc1c(-c2nc(Nc3ccc(C4CCN(C)CC4)cn3)ncc2F)sc2c(C(C)C)c[nH]c(=O)c12` [Example 60, 2-(5-Fluoro-2-((5-(1-methylpiperidin-4-yl)pyridin-2-yl)amino)pyrimidin-4-yl)-7-isopropyl-3-methylthieno[3,2-c]pyridin-4(5H)-one]: the IC50 (on CDK4/Cyclin D1; at CDK6/Cyclin D1; in data set [2]) was no more than 20 nM each time. The concentration ratio (Kp) at 4 h in data set [1] was less than 1.

Turning to `Cc1c(-c2nc(Nc3ccc(N4CC5(CCN(C)C5)C4)cn3)ncc2F)sc2c(C(C)C)cn(C)c(=O)c12` [Example 61, 2-(5-Fluoro-2-((5-(6-methyl-2,6-diazaspiro[3.4]octan-2-yl)pyridin-2-yl)amino)pyrimidin-4-yl)-7-isopropyl-3,5-dimethylthieno[3,2-c]pyridin-4(5H)-one], the IC50 (at CDK4/Cyclin D1; at CDK6/Cyclin D1; in data set [2]) was no more than 20 nM in each case. In addition, the Kp at 4 h in data set [1] lay within 1 to 3.

Take `Cc1nc2cc(-c3nc(Nc4ccc(CN5CCN(CC(F)F)CC5)cn4)ncc3F)sc2n1C(C)C` [Example 64, N-[5-[[4-(2,2-Difluoroethyl)piperazin-1-yl]methyl]pyridin-2-yl]-5-fluoro-4-(2-methyl-3-propan-2-ylthieno[2,3-d]imidazol-5-yl)pyrimidin-2-amine]: the IC50 is 20 to 200 nM at CDK4/Cyclin D1, 20 to 200 nM at CDK6/Cyclin D1 and 200 to 2000 nM in data set [2]. In data set [1], the Kp at 4 h was less than 1.

For `Cc1c(-c2nc(Nc3ccc(N4CCC(N(C)C)C4)cn3)ncc2F)sc2c1nc(C)n2C(C)C` (stereo not shown) [Example 73, N-[5-[3-(Dimethylamino)pyrrolidin-1-yl]pyridin-2-yl]-4-(2,6-dimethyl-3-propan-2-ylthieno[2,3-d]imidazol-5-yl)-5-fluoropyrimidin-2-amine], the IC50 on CDK4/Cyclin D1 is no more than 20 nM; at CDK6/Cyclin D1 it was 20 to 200 nM; in data set [2], 20 to 200 nM. Further, in data set [1], the concentration ratio (Kp) at 4 h was 1 to 3.

With `CCN1C2CC1CN(c1ccc(Nc3ncc(F)c(-c4cc5nc(C)n(C(C)C)c5s4)n3)nc1)C2` [Example 74, N-[5-(6-ethyl-3,6-Diazabicyclo[3.1.1]heptan-3-yl)pyridin-2-yl]-5-fluoro-4-(2-methyl-3-propan-2-ylthieno[2,3-d]imidazol-5-yl)pyrimidin-2-amine], the results for the IC50 (on CDK4/Cyclin D1; on CDK6/Cyclin D1; in data set [2]) were no more than 20 nM, 20 to 200 nM and 20 to 200 nM, respectively. Besides, the Kp at 4 h in data set [1] is less than 1.

In the case of `Cc1c(-c2nc(Nc3ccc(N4CC5(CCN(C)CC5)C4)cn3)ncc2F)sc2c(C(C)C)cn(C)c(=O)c12` [Example 77, 2-(5-Fluoro-2-((5-(7-methyl-2,7-diazaspiro[3.5]nonan-2-yl)pyridin-2-yl)amino)pyrimidin-4-yl)-7-isopropyl-3,5-dimethylthieno[3,2-c]pyridin-4(5H)-one], the IC50 was no more than 20 nM at CDK4/Cyclin D1, no more than 20 nM on CDK6/Cyclin D1 and 20 to 200 nM in data set [2]. In data set [1], the Kp at 4 h lay in the range of 1 to 3.

With `Cc1c(-c2nc(Nc3ccc(N4C[C@H]5CN(C)C[C@H]5C4)cn3)ncc2F)sc2c(C(C)C)cn(C)c(=O)c12` [Example 78, 2-(5-Fluoro-2-((5-((3aR,6aS)-5-methylhexahydropyrrolo[3,4-c]pyrrol-2(1H)-yl)pyridin-2-yl)amino)pyrimidin-4-yl)-7-isopropyl-3,5-dimethylthieno[3,2-c]pyridin-4(5H)-one], the IC50 is no more than 20 nM at CDK4/Cyclin D1, no more than 20 nM on CDK6/Cyclin D1 and 20 to 200 nM in data set [2]. In addition, in data set [1], the Kp at 4 h fell in the range of 1 to 3.

With `Cc1c(-c2nc(Nc3ccc(N4C[C@@H]5CN(C)C[C@H]5C4)cn3)ncc2F)sc2c(C(C)C)cn(C)c(=O)c12` [Example 79, 2-(5-Fluoro-2-((5-((3aS,6aS)-5-methylhexahydropyrrolo[3,4-c]pyrrol-2(1H)-yl)pyridin-2-yl)amino)pyrimidin-4-yl)-7-isopropyl-3,5-dimethylthieno[3,2-c]pyridin-4(5H)-one], the IC50 at CDK4/Cyclin D1 was no more than 20 nM; on CDK6/Cyclin D1 it was no more than 20 nM; in data set [2], 20 to 200 nM. Further, in data set [1], the Kp at 4 h is less than 1.

Take `[2H]C([2H])([2H])N1CCC(c2ccc(Nc3ncc(F)c(-c4sc5c(C(C)C)cn(C)c(=O)c5c4C)n3)nc2)CC1` [Example 82, 2-(5-Fluoro-2-((5-(1-(methyl-d3)piperidin-4-yl)pyridin-2-yl)amino)pyrimidin-4-yl)-7-isopropyl-3,5-dimethylthieno[3,2-c]pyridin-4(5H)-one]: the IC50 at CDK4/Cyclin D1 is no more than 20 nM; at CDK6/Cyclin D1, no more than 20 nM; in data set [2] it was 20 to 200 nM. For the same compound, the Kp at 4 h in data set [1] was greater than 3.

As to `Cc1c(-c2nc(Nc3ccc(C4CCN(C5CCOC5)CC4)cn3)ncc2F)sc2c(C(C)C)cn(C)c(=O)c12` (stereo not shown) [Example 84, 2-(5-Fluoro-2-((5-(1-(tetrahydrofuran-3-yl)piperidin-4-yl)pyridin-2-yl)amino)pyrimidin-4-yl)-7-isopropyl-3,5-dimethylthieno[3,2-c]pyridin-4(5H)-one], the IC50 at CDK4/Cyclin D1 is no more than 20 nM; at CDK6/Cyclin D1, no more than 20 nM; in data set [2] it was 20 to 200 nM. Moreover, the concentration ratio (Kp) at 4 h in data set [1] lay within 1 to 3.

On to `CC(C)c1cn(C)c(=O)c2cc(-c3nc(Nc4ccc(C5CCN(C)CC5)cn4)ncc3F)sc12` [Example 86, 2-(5-Fluoro-2-((5-(1-methylpiperidin-4-yl)pyridin-2-yl)amino)pyrimidin-4-yl)-7-isopropyl-5-methylthieno[3,2-c]pyridin-4(5H)-one], for which the IC50 is no more than 20 nM on CDK4/Cyclin D1, 20 to 200 nM at CDK6/Cyclin D1 and 20 to 200 nM in data set [2]. For the same compound, in data set [1], the concentration ratio (Kp) at 4 h fell in the range of 1 to 3.

Turning to `CCN1CCC(c2ccc(Nc3ncc(F)c(-c4sc5c(C(C)C)cn(C)c(=O)c5c4C)n3)nc2)CC1` [Example 87, 2-(2-((5-(1-Ethylpiperidin-4-yl)pyridin-2-yl)amino)-5-fluoropyrimidin-4-yl)-7-isopropyl-3,5-dimethylthieno[3,2-c]pyridin-4(5H)-one], the IC50 was no more than 20 nM on CDK4/Cyclin D1, no more than 20 nM on CDK6/Cyclin D1 and 20 to 200 nM in data set [2]. For the same compound, in data set [1], the Kp at 4 h lay within 1 to 3.

Regarding `Cc1c(-c2nc(Nc3ccc(C4CCCN(C)C4)cn3)ncc2F)sc2c(C(C)C)cn(C)c(=O)c12` (stereo not shown) [Example 88, 2-(5-Fluoro-2-((5-(1-methylpiperidin-3-yl)pyridin-2-yl)amino)pyrimidin-4-yl)-7-isopropyl-3,5-dimethylthieno[3,2-c]pyridin-4(5H)-one], the IC50 on CDK4/Cyclin D1 is no more than 20 nM; at CDK6/Cyclin D1 it was 20 to 200 nM; in data set [2], 20 to 200 nM. Moreover, the Kp at 4 h in data set [1] is 1 to 3.

For `Cc1c(-c2nc(Nc3ccc(N4CCN(C(C)C)CC4)cn3)ncc2F)sc2c(C(C)C)cn(C)c(=O)c12` [Example 89, 2-(5-Fluoro-2-((5-(4-isopropylpiperazin-1-yl)pyridin-2-yl)amino)pyrimidin-4-yl)-7-isopropyl-3,5-dimethylthieno[3,2-c]pyridin-4(5H)-one], the IC50 on CDK4/Cyclin D1 was no more than 20 nM; at CDK6/Cyclin D1 it was no more than 20 nM; in data set [2] it was 20 to 200 nM. For the same compound, the Kp at 4 h in data set [1] is greater than 3.

For the compound `CCN1CCN(Cc2ccc(Nc3ncc(F)c(-c4sc5c(C(C)C)cn(C)c(=O)c5c4C)n3)nc2)CC1` [Example 90, 2-(2-((5-((4-Ethylpiperazin-1-yl)methyl)pyridin-2-yl)amino)-5-fluoropyrimidin-4-yl)-7-isopropyl-3,5-dimethylthieno[3,2-c]pyridin-4(5H)-one], the IC50 was no more than 20 nM at CDK4/Cyclin D1, 20 to 200 nM at CDK6/Cyclin D1 and 20 to 200 nM in data set [2]. Moreover, the concentration ratio (Kp) at 4 h in data set [1] was less than 1.

These data come from patent US11685744B2, “CDK inhibitors and their use as pharmaceuticals” (Prelude Therapeutics, Incorporated, priority 2020, dated 2023).
